Laboratory results published in patent US12251422B2, “Compositions and methods for treating neurological and other disorders” (Rush University Medical Center, priority 2018, dated 2025).

How the values were obtained:
A53T α-syn Tg mice = experiment: α-Synucleinopathy in A53T α-syn Tg mice; assay type: in vivo, mouse; settings: 0.1 mg/kg body wt/d intranasal, 30 d
Method: (§1) FIG. 28 (A-B). Intranasal wtTIDM peptide attenuates microglial inflammation in the nigra of A53T α-syn Tg mice. A53T mice (male; 9-month old; n=6 per group) were treated with TIDM peptides via intranasal route at a dose of 0.1 mg/kg body wt/d for 30 d followed by double-label immunofluorescence analysis of nigral sections for Iba-1 and inducible nitric oxide synthase (iNOS) (A). Magnified images of selected area are shown at the bottom row. The iNOS (+ve) cells were counted in two sections of each of six mice per group and presented as cells/mm2.
as §1, with “29” for “28”, “stimulates” for “attenuates”, “expression of arginase-1” for “inflammation”, “arginase-1 (ARG1)” for “inducible nitric oxide synthase (iNOS)”, “ARG-1” for “iNOS”
FIG. 30 (A-C). Intranasal wtTIDM peptide reduces α-synucleinopathy in the nigra of A53T α-syn Tg mice. A53T mice (male; 9-month old; n=6 per group) were treated with TIDM peptides via intranasal route at a dose of 0.1 mg/kg body wt/d for 30 d followed by Western blot analysis of nigral extracts for α-syn (A). Bands were scanned and presented as relative to A53T control (B, monomeric α-syn; C, oligomeric α-syn). Results are mean+SEM of six mice per group.
(§2) FIG. 31 (A-D). Intranasal wtTIDM peptide reduces α-synucleinopathy in the nigra of A53T α-syn Tg mice. A53T mice (male; 9-month old; n=6 per group) were treated with TIDM peptides via intranasal route at a dose of 0.1 mg/kg body wt/d for 30 d followed by double-label immunofluorescence analysis of nigral sections for TH and α-syn (mjfr1 Ab) (A). Magnified images of selected area are shown at the leftmost column. Total area (B), average size (C) and integrated density (D) of α-syn-positive cell bodies were calculated. Five cells from each of two nigral sections of six mice per group were analyzed.
as §2, with “FIG. 32 (A-B).” for “FIG. 31 (A-D).”, “for microglial marker Iba-1” for “for TH”, “column. Mean fluorescence intensity (MFI)” for “column. Total area (B), average size (C) and integrated density (D)”, “of (α-syn+Iba-1)-positive” for “of α-syn-positive”, “bodies was” for “bodies were”
FIG. 33 (A-E). Intranasal wtTIDM peptide improve locomotor activities of A53T α-syn Tg mice. A53T mice (male; 9-month old; n=6 per group) were treated with TIDM peptides via intranasal route at a dose of 0.1 mg/kg body wt/d for 30 d followed by monitoring locomotor activities by the Ethovision XT 13.0 Open Field Activity System (Noldus) (A, track plot; B, moving cumulative duration; C, distance; D, velocity; E, rotorod). Results are mean+SEM of six mice per group.

[1] = target: T1, C-terminal TIR domain of TLR2 protein (cTLR2) (Mus musculus, UniProt Q9QUN7); experiment: Surface plasmon resonance binding of TIDM peptides to cTLR2
T1 construct: The cTLR2 (640-784 amino acids) tagged with c-myc was cloned in lenti vector; made in house; host or cells: HEK293 cells (lentiviral expression)
T1 sequence (Q9QUN7 640-784): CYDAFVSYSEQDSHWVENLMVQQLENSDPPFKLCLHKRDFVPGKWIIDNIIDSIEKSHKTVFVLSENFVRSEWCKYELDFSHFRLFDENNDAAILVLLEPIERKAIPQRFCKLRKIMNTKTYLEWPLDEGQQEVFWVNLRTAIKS
Method: TLR2 full-length construct (pLenti-cmyc-DDK/tlr2) was purchased from Origene. The cTLR2 (640-784 amino acids) tagged with c-myc was cloned in lenti vector using TOPO TA cloning kit (K5310-00; Life technologies). Briefly, a kozak sequence was incorporated in the upstream of C-terminal TIR domain of TLR2. Next, cTLR2 was cloned in lentivector followed by packaging in lentivirus using HEK293FT cells. After 48 h, media was collected and concentrated with Lenti-X Concentrator (Cat #631231; Clontech). This concentrated lentiviral sup was used for viral transduction. The cTLR2 protein was isolated from HEK293 cell lysate by passing through Myc affinity column. Purified protein was desalted and concentrated by using 10 kD molecular cut-off filtration system.
To analyze the binding of TLR2 with TIDM peptides, surface plasmon resonance (SPR) experiments were carried out using a Reichert 4SPR instrument (Reichert Technologies, Buffalo, NY). Binding assay was performed using a 500 kDa Carboxymethyl Dextran Gold Sensor Slide (Reichert Inc.) for capturing TLR2. Protein immobilization was at a flow rate of 30 μl/min in PBS for 3 min with 0.8 mg/mL solution of TLR2. For analyte association, different concentrations of wtTIDM and mTIDM peptides in PBS running buffer were injected for 2.5 min at a rate of 30 μl/min followed by a dissociation phase of 3 min. The sensor surface was regenerated after each dissociation cycle by allowing buffer to flow at 40 μl/min for a minimum of 15 min. Signals obtained for the TLR2-bound surface were subtracted by signals obtained for the reference cell according to standard procedure using the system software. The concentration dependence of the subtracted signal was analyzed to determine binding affinity of TLR2 with wtTIDM and mTIDM peptides.

cTLR2 protein = target: T2, cTLR2 protein (Mus musculus, UniProt Q9QUN7); experiment: Thermal shift assay of cTLR2 with TIDM peptides; assay type: binding; settings: 10 μM peptide
T2 construct: The cTLR2 (640-784 amino acids) tagged with c-myc was cloned in lenti vector; made in house; host or cells: HEK293 cells (lentiviral expression)
T2 sequence (Q9QUN7 640-784): as above
Method: Thermal shift assays were performed in an Applied Biosystems 7500 standard real-time thermal cycler machine as described before (52, 53). For each reaction, purified protein (0.5 μg to 1 μg) was added to 18 μL of thermal shift buffer provided with the kit, and 1-2 μL of dye. Reaction was set 96 well PCR plate in the dark and then placed in the thermal cycler machine using the following two-stage program [(25° C. for 2 mins) 1 cycle; ([…]) 70 cycles; auto increment 1° C. for both stages]. The filter was set at ROX with no quencher filter and no passive filter.

SMILES	protective effect in A53T mice (all readouts) (A53T α-syn Tg mice)	Kd [1] [µM]	shift (ΔTm) of melting temperature of cTLR2 (cTLR2 protein) [°C]	arginase-1 in the nigra (A53T α-syn Tg mice)	locomotor activities of A53T mice (A53T α-syn Tg mice)	microglial expression of iNOS in the nigra (A53T α-syn Tg mice)	microglial α-syn in the nigra (A53T α-syn Tg mice)	oligomeric and monomeric α-syn (A53T α-syn Tg mice)	α-syn inclusion bodies within tyrosine hydroxylase-positive dopaminergic neurons (A53T α-syn Tg mice)	affinity for cTLR2 stronger than mTIDM ([1]; ratio of Kd values)
CC[C@H](C)[C@H](NC(=O)[C@H](CCCCN)NC(=O)[C@@H](NC(=O)[C@H](CCC(N)=O)NC(=O)[C@H](CCCNC(=N)N)NC(=O)[C@@H](N)CC(=O)O)[C@@H](C)CC)C(=O)N[C@@H](Cc1c[nH]c2ccccc12)C(=O)N[C@@H](Cc1ccccc1)C(=O)N[C@@H](CCC(N)=O)C(=O)N[C@@H](CC(N)=O)C(=O)N[C@@H](CCCNC(=N)N)C(=O)N[C@@H](CCCNC(=N)N)C(=O)N[C@@H](CCSC)C(=O)N[C@@H](CCCCN)C(=O)N[C@@H](Cc1c[nH]c2ccccc12)C(=O)N[C@@H](CCCCN)C(=O)N[C@@H](CCCCN)C(=O)N1CCC[C@H]1C(=O)NCC(=O)N[C@@H](Cc1c[nH]c2ccccc12)C(=O)N[C@@H](Cc1c[nH]cn1)C(=O)N[C@@H](CCC(N)=O)C(=O)N[C@@H](CC(=O)O)C(=O)O [mTIDM, drqikiwfqnrrmkwkkPGWHQD]	did not exhibit any such protective effect	19	0.87							
CC[C@H](C)[C@H](NC(=O)[C@H](CCCCN)NC(=O)[C@@H](NC(=O)[C@H](CCC(N)=O)NC(=O)[C@H](CCCNC(=N)N)NC(=O)[C@@H](N)CC(=O)O)[C@@H](C)CC)C(=O)N[C@@H](Cc1c[nH]c2ccccc12)C(=O)N[C@@H](Cc1ccccc1)C(=O)N[C@@H](CCC(N)=O)C(=O)N[C@@H](CC(N)=O)C(=O)N[C@@H](CCCNC(=N)N)C(=O)N[C@@H](CCCNC(=N)N)C(=O)N[C@@H](CCSC)C(=O)N[C@@H](CCCCN)C(=O)N[C@@H](Cc1c[nH]c2ccccc12)C(=O)N[C@@H](CCCCN)C(=O)N[C@@H](CCCCN)C(=O)N1CCC[C@H]1C(=O)NCC(=O)N[C@@H](C)C(=O)N[C@@H](Cc1c[nH]cn1)C(=O)N[C@@H](CCC(N)=O)C(=O)N[C@@H](CCCCN)C(=O)O [wtTIDM, drqikiwfqnrrmkwkkPGAHQK]		8	4.96	increase	improved	reduced	decrease	reduction	suppression	approximately 2.5 times
